Results as given in patent US10011863B2, “Methods for detecting enhanced NMDA receptor function and uses thereof” (INOVA HEALTH SYSTEM, priority 2016, dated 2018).

Key:
[1] = system: human GRIN2B promoter (A allele of SNP rs3764030) in N2a cells; assay: dual-luciferase reporter gene assay, GRIN2B promoter A allele plasmid; assay type: cell-based, murine
Experimental: (§1) FIG. 3 depicts a concentration dependent response of human GRIN2B promoter in N2a cells carrying either the A or G alleles of SNP rs3764030 to NMDA. Luciferase reporter gene plasmids were constructed in pGL 4.10 (to produce Firefly luciferase, Promega, US). Luciferase reporter plasmids and the pGL4.75 plasmid (to produce Renilla luciferase as a reference) were co-transfected into retinoic acid differentiated N2a cells and assayed for (Methods). After 24 hours of transfection, the cells were incubated for six hours with 0, 30, 50, 70 or 90 μM NMDA for transcription factors binding and then replaced with complete media (with 10% FBS) and cultured for an additional 40-44 hrs. Data are presented as means±SE.
(§2) Molecular and cellular characterization of a functional GRIN2B SNP: Luciferase vector construction. […]
(§3) Cell Culture, Transfection, and Luciferase assay. […] The luciferase activities were then measured in Synergy 4 plate reader (Biotek, US).
(§4) Murine Neuro-2a neuroblastoma cells were maintained in RPMI medium 1640 with 10% Fetal Bovine Serum (complete medium) at 37° C. in 5% CO2. […] The luciferase activities were then measured in Synergy 4 plate reader (Biotek US).

[2] = system: human GRIN2B promoter (G allele of SNP rs3764030) in N2a cells; assay: dual-luciferase reporter gene assay, GRIN2B promoter G allele plasmid; assay type: cell-based, murine; conditions: N2A cells transfected with G allele luciferase reporter plasmid; increasing concentrations of NMDA
Experimental: as §1, §2, §3, §4

[3] = target: T1, recombinant human Elk-1 protein (Homo sapiens, UniProt P19419); assay: Electrophoretic Mobility Shift Assay (EMSA); assay type: binding; conditions: 1 μg recombinant human Elk-1; gel stained for DNA (SYBR Green) and protein (SYPRO Ruby)
T1 construct: purchased Sigma Aldrich
T1 sequence (P19419 1-428): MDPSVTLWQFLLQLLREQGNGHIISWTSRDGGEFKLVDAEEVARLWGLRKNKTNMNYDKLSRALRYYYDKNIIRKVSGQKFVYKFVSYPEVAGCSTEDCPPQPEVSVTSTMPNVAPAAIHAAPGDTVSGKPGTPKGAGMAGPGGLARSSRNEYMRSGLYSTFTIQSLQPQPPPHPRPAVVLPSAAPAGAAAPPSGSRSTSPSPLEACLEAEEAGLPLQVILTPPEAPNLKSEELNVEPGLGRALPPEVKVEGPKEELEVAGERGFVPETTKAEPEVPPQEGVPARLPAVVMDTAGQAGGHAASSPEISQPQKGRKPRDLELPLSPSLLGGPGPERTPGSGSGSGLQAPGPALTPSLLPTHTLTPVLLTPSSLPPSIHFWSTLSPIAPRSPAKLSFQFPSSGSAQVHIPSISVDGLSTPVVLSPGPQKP
Experimental: FIG. 2 depicts binding of recombinant Elk-1 protein (an ETS transcription factor) to double stranded DNAs containing the single nucleotide polymorphism (SNP) rs3764030 variant A allele from the human GRIN2B gene promoter. Double-stranded DNA targets (Methods) were sequentially incubated with 1 μg recombinant human Elk-1 protein in EMSA buffer, then incubated with the Elk-1 antibody 20 minutes. […] Samples were electrophoresed through 6% polyacrylamide gels in HEPES buffer pH 6.3, without polydldC. The gel was then stained with the SYBR Green to visualize DNA and SYPRO Ruby for protein bound to DNA. The stained gel was scanned using G:BOX (Syngene, US) for imaging. Elk-1 bound to DNA is indicated by the arrow.
Electrophoretic Mobility Shift Assay (EMSA). To monitor the interaction between the ETS domain transcription factor, Elk-1, and its DNA recognition sequence in vitro, we used EMSA. The DNA sequences for positive control containing a GGAT consensus core binding sequence were: Forward: 5′ […] 3′ (SEQ ID NO:2) and Reverse: 5′ […] 3′ (SEQ ID NO:3). The negative control region was: Forward: 5′ […] 3′ (SEQ ID NO:4) and Reverse: 5′ […] 3′ (SEQ ID NO:5), as described in Wei et al (2010). The forward and reverse sequence for GRIN2B A allele which created the ETS binding site were: 5′ […] 3′ (SEQ ID NO:6)and 5′ […] 3′ (SEQ ID NO:7), repectively. […]

Row | Compound | dose-dependent increase in luciferase activity ([1]; N2A cells transfected with A allele reporter, increasing concentrations of NMDA (0, 30, 50, 70, 90 μM)) | reporter gene activity of A allele relative to cells carrying the G allele reporter ([1]; NMDA receptor activation, dose-dependent, A allele vs G allele) | luciferase reporter response to NMDA treatment [2] | binding of recombinant Elk-1 to DNA probe [3]
1 | CN[C@H](CC(=O)O)C(=O)O [NMDA, N-methyl-D-aspartate] | 2.4-11.5 fold | 2 fold | did not respond | –
2 | A allele DNA probe: annealed dsDNA of GRIN2B A allele, 5′ CATCTCCGGGGAACACGCGAA 3′ (SEQ ID NO:6) and SEQ ID NO:7, creating ETS binding site (chain 2 TTCGCGTGTTCCCCGGAGATG; listed as DNA, chemistry not given here) | – | – | – | bound recombinant Elk-1 to a greater extent than the G allele DNA probe
